Measurements reported in article PMC9837035 (Nature Communications, 2023).
≈ marks a conversion by molar mass, not a printed value. Where “and” joins values, the source holds several entries; their conditions need not be identical. Equal entries are not always repeated. Where two headings read alike, the source gives them in different places.

Assays:
[1] = tested on: H3K9me2 on the β-globin locus; test: ChIP-seq for H3K9me2 in HUDEP-2 cells; assay type: cell-based, human; conditions: HUDEP-2, 1 μM, 4 days
Protocol: A total of 0.5–1 × 10^6 cells were cross-linked with 1% formaldehyde for 10 min at room temperature and the reaction was quenched with 250 mM glycine. Cross-linked cells were then lysed with buffer 1 (15 mM Tris-HCl (pH 7.5), 60 mM KCl, 15 mM NaCl, 5 mM MgCl2, 0.1 mM EGTA, 300 mM sucrose, […], 1 mM phenylmethanesulfonyl fluoride (PMSF), 0.5% NP40) and incubated on ice for 10 min. After centrifugation, the pellet was re-suspended in buffer 2 (15 mM Tris-HCl (pH 7.5), 60 mM KCl, 15 mM NaCl, 5 mM MgCl2, 0.1 mM EGTA, 1.2 M sucrose, […], 1 mM PMSF). After centrifugation, the pellet was then re-suspended in MNase buffer (50 mM Tris-HCl (pH 7.5), 1 mM CaCl2, 4 mM MgCl2, 320 mM sucrose, 1 mM PMSF) and digested with 100 U of micrococcal nuclease (Takara) at 37 °C for 15 min. […] The samples were analyzed by qPCR. […] ChIP-seq analysis were analyzed Cutadapt (V1.9.1) for QC, FastQC (V0.10.1) for QC assessment, Bowtie (V2.1.0) for mapping, strand cross-correlation (SCC) for ChIP quality assessment, MACS2 for peak calling, and R package ChIPpeakAnno for Peak annotated.

[2] = tested on: bone marrow cells of rats; test: In vivo micronucleus assay
Description: A negative control group was established, where the animals received orally 5% methylcellulose solution. […] We counted erythrocytes, recorded the frequencies of polychromatic erythrocyte (PCE) cells in 500 erythrocytes and micronucleated polychromatic erythrocyte (MNPCE) cells in 4000 PCE cells, and calculated the average frequency and the standard deviations for each treatment groups.

Aqueous solubility = assay type: physicochemical; parameters: Solubility in PBS (pH = 7.4): unit: uM; conditions: for solubility at 1 h: phosphate buffer
Protocol: The direct UV kinetic solution method was performed in duplicate. A 10 mM DMSO solution of compound was added to a microtube containing aqueous pH 7.4 or pH 6.8 phosphate buffer solution (maximum concentration: 200 μM). The solution mixture was vigorously shaken at ambient temperature for 1 h. The precipitate was removed by centrifugal separation, and the UV absorbance of the supernatant and the standard solution prepared by the test compound for calibration were measured in duplicate using a 96-well UV plate reader, SPECTRA MAX190 (Molecular Devices).

[3] = Caco-2 permeability assay; assay type: in vitro ADME; conditions: human
Caco-2 = Caco-2 permeability assay; assay type: in vitro ADME; conditions: replicate values
[4] = Liver microsomal stability assay, human; assay type: in vitro ADME; conditions: for Metabolic stability, % remaining of RK-701: Human
Protocol: [Human/Rat] Liver microsome analyses (human, rat) were performed in triplicate by the Sumika Chemical Analysis Service (SCAS) according to the standard protocols. […] [Dog/Monkey] Liver microsome analyses (dog, monkey) were performed in duplicate by RIKEN according to the same protocols as SCAS.

MLL2 [5] = molecular target: MLL2
MLL2, sequence (O14686 5319-5537): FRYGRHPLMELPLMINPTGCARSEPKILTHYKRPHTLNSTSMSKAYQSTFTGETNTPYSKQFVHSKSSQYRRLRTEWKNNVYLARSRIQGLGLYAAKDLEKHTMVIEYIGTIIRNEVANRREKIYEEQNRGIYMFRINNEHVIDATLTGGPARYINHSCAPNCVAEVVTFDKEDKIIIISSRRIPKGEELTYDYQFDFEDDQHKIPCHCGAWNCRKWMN
MLL2, sequence (Q9C005 whole entry, further chain): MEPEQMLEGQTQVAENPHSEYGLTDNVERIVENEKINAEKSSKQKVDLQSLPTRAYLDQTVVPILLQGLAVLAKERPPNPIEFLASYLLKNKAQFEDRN
MLL2, sequence (Q15291 whole entry, further chain): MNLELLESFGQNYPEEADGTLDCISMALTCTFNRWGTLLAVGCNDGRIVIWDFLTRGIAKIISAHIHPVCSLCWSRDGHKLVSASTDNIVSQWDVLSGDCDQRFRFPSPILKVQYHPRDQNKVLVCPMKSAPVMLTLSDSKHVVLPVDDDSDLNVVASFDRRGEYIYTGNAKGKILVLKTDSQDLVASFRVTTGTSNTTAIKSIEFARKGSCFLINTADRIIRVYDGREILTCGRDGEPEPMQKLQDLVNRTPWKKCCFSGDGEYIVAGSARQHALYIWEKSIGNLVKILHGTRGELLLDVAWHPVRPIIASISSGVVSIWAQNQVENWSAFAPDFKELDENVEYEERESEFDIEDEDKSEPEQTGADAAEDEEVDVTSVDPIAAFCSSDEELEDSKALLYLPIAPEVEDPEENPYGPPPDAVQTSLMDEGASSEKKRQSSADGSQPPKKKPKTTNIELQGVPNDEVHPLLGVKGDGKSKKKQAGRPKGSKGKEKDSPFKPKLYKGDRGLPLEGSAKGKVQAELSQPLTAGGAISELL
MLL2, sequence (Q9UBL3 whole entry, further chain): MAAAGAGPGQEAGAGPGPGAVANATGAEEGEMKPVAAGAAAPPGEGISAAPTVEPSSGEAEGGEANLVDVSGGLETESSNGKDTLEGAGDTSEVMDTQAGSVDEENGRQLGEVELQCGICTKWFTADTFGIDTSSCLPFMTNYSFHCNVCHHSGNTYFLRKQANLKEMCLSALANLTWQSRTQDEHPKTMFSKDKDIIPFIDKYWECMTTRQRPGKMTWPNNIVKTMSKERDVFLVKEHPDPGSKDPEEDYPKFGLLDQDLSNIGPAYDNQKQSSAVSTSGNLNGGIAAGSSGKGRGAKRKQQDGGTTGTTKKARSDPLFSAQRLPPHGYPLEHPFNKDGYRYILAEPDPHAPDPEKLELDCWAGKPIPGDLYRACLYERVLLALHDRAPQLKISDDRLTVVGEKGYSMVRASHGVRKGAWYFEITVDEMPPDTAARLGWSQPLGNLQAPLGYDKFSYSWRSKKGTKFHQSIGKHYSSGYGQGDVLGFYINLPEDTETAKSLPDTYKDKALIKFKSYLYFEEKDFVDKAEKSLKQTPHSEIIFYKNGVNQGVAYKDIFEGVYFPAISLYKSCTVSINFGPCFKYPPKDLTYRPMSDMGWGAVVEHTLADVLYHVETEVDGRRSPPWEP

MLL2 [6] = molecular target: MLL2 (Homo sapiens, UniProt O14686)
MLL2 (Homo sapiens, UniProt O14686), sequence (O14686 5319-5537): as the sequence (O14686 5319-5537) above
MLL2 (Homo sapiens, UniProt O14686), sequence (Q9C005 whole entry, further chain): as the sequence (Q9C005 whole entry, further chain) above
MLL2 (Homo sapiens, UniProt O14686), sequence (Q15291 whole entry, further chain): as the sequence (Q15291 whole entry, further chain) above
MLL2 (Homo sapiens, UniProt O14686), sequence (Q9UBL3 whole entry, further chain): as the sequence (Q9UBL3 whole entry, further chain) above

[7] = Dose 10 mg/kg, individual animals
[8] = Dose 30 mg/kg, individual animals
[9] = Dose 100 mg/kg, individual animals
[10] = male rats, oral 2 weeks, 10 mg/kg, Mean ± S.D.
[11] = male rats, oral 2 weeks, 30 mg/kg, Mean ± S.D.
[12] = male rats, oral 2 weeks, 100 mg/kg, Mean ± S.D.

Cc1c(C(=O)NC(CCC2CC2)C(=O)Nc2ccc(C#N)cc2)[nH]c2c1C(=O)CC(C)(C)C2 (stereo not drawn) [RK-701]
occupancies of H3K9me2 throughout the β-globin gene locus [1]: reduced | MNPCE (%) [2, 7]: 0.15% and 0.18% and 0.13% and 0.23% | No. of PCE in 500 erythrocytes [2, 7]: 331 and 285 and 278 and 305 and 288 | Number of MNPCE in 4000 PCE [2, 7]: 6 and 7 and 5 and 9 | PCE (%) [2, 7]: 66.2% and 57% and 55.6% and 61% and 57.6% | MNPCE (%) [2, 8]: 0.08% and 0.1% | No. of PCE in 500 erythrocytes [2, 8]: 299 and 308 and 294 and 330 and 306 | Number of MNPCE in 4000 PCE [2, 8]: 3 and 4 | PCE (%) [2, 8]: 59.8% and 61.6% and 58.8% and 66% and 61.2% | MNPCE (%) [2, 9]: 0.13% and 0.1% and 0.18% and 0.15% | No. of PCE in 500 erythrocytes [2, 9]: 258 and 313 and 314 and 323 and 328 | Number of MNPCE in 4000 PCE [2, 9]: 5 and 4 and 7 and 6 | PCE (%) [2, 9]: 51.6% and 62.6% and 62.8% and 64.6% and 65.6% | MNPCE (%) [2, 10]: 0.17 ± 0.04% | No. of PCE in 500 erythrocytes [2, 10]: 297 ± 21 | PCE (%) [2, 10]: 59.5 ± 4.2% | MNPCE (%) [2, 11]: 0.09 ± 0.01% | No. of PCE in 500 erythrocytes [2, 11]: 307 ± 14 | Number of MNPCE in 4000 PCE [2, 11]: 4 ± 1 | PCE (%) [2, 11]: 61.5 ± 2.8% | MNPCE (%) [2, 12]: 0.13 ± 0.03% | No. of PCE in 500 erythrocytes [2, 12]: 307 ± 28 | Number of MNPCE in 4000 PCE [2, 12]: 5 ± 1 | PCE (%) [2, 12]: 61.4 ± 5.6% | Number of MNPCE in 4000 PCE ([2]; male rats, oral once a day 2 weeks, 10 mg/kg, Mean ± S.D.): 7 ± 1 | formation of micronuclei in bone marrow cells ([2]; rats, oral, up to 100 mg/kg, two weeks): did not cause the formation of micronuclei | Solubility in PBS (pH = 6.8) (Aqueous solubility; PBS pH = 6.8, replicate values): 31.5 and 23.5 and 26.4 | Solubility in PBS (pH = 7.4) (Aqueous solubility; PBS pH = 7.4, replicate values): 10.4542 and 12.4313 and 11.5534 and 10.9261 and 15.3115 and 10.1928 and 7.42 and 8.729 | solubility at 1 h (Aqueous solubility; pH 6.8, PBS pH = 6.8, replicate values, read-out: Solubility in PBS (pH = 6.8)): 23.9 µM (≈ 10.7 µg/mL) | solubility at 1 h (Aqueous solubility; pH 6.8, pH6.8, read-out: Solubility in PBS): 26.3 ± 3.2 µM (≈ 11.7 µg/mL) | solubility at 1 h (Aqueous solubility; pH 7.4, pH7.4, read-out: Solubility in PBS): 10.9 ± 2.2 µM (≈ 4.87 µg/mL) | Papp A→B ([3]; Caco-2, A to B, replicate values, read-out: Papp A to B): 4.8 ×10⁻⁶ cm/s | Papp A→B ([3]; Caco-2, Apical to Basal, read-out: Caco-2 permeability Papp A to B): 5.23 ± 0.47 ×10⁻⁶ cm/s | Papp B→A ([3]; Caco-2, B to A, replicate values, read-out: Papp B to A): 19.5 ×10⁻⁶ cm/s | Papp B→A ([3]; Caco-2, Basal to Apical, read-out: Caco-2 permeability Papp B to A): 18.9 ± 0.92 ×10⁻⁶ cm/s | Papp A to B (Caco-2; A to B): 5.724 and 5.177 | Papp B to A (Caco-2; B to A): 17.8638 and 19.3603 | Metabolic stability, % remaining of RK-701 ([4]; Time 5, replicate values): 103.5% and 98.1% | Metabolic stability, % remaining of RK-701 ([4]; Time 10, replicate values): 104.9% and 98.1% | Metabolic stability, % remaining of RK-701 ([4]; Time 20, replicate values): 89.6% and 79.6% | Metabolic stability, % remaining of RK-701 ([4]; Time 30, replicate values): 78.5% and 70.7% | Metabolic stability, % remaining of RK-701 ([4]; Time 60, replicate values): 68.6% and 60.8% | remaining at 5 min, 1 µM ([4]; human, liver microsomes, Metabolic stability, % remaining of RK-701, Human, Time 5, replicate values): 93.1% | remaining at 10 min, 1 µM ([4]; human, liver microsomes, Metabolic stability, % remaining of RK-701, Human, Time 10, replicate values): 95.5% | remaining at 20 min, 1 µM ([4]; human, liver microsomes, Metabolic stability, % remaining of RK-701, Human, Time 20, replicate values): 80.5% | remaining at 30 min, 1 µM ([4]; human, liver microsomes, Metabolic stability, % remaining of RK-701, Human, Time 30, replicate values): 70.4% | remaining at 60 min, 1 µM ([4]; human, liver microsomes, Metabolic stability, % remaining of RK-701, Human, Time 60, replicate values): 62.1% | microsomal CLint at 1 μM ([4]; human, liver microsomes, read-out: Metabolic stability in liver microsomes CLint): 19 µL/min/mg | stability in liver microsomes ([4]; various species): most stable in human liver microsomes | IC50 (MLL2 [5]): > 100 µM

Nc1ncnc2c1ncn2[C@@H]1O[C@H](CSCC[C@H](N)C(=O)O)[C@@H](O)[C@H]1O [SAH, S-(5'-Adenosyl)-L-homocysteine, reference compound]
IC50 (MLL2 [6]): 11.6 µM
